Laboratory results reported in PubChem BioAssay (NCI).
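Assay format: 96-well plates, 48-hour exposure. Abbreviation: GI50, concentration required for 50% inhibition of growth. Definition used: TGI = concentration required for complete inhibition of growth.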

Columns and labels:
Assay in all cases: NCI tumour cell line growth inhibition, 48 h
LOX IMVI melanoma = tested on: LOX IMVI melanoma
MOLT-4 leukemia = tested on: MOLT-4 leukemia
EKVX NSCLC = tested on: EKVX NSCLC
ACHN renal = tested on: ACHN renal
NCI/ADR-RES ovarian = tested on: NCI/ADR-RES ovarian
SF-539 CNS = tested on: SF-539 CNS
SF-268 CNS = tested on: SF-268 CNS
OVCAR-8 ovarian = tested on: OVCAR-8 ovarian
SK-MEL-5 melanoma = tested on: SK-MEL-5 melanoma
SW-620 colon = tested on: SW-620 colon
786-0 renal = tested on: 786-0 renal
HS 578T breast = tested on: HS 578T breast
OVCAR-3 ovarian = tested on: OVCAR-3 ovarian
OVCAR-5 ovarian = tested on: OVCAR-5 ovarian
HOP-92 NSCLC = tested on: HOP-92 NSCLC
A549 NSCLC = tested on: A549 NSCLC
MCF7 breast = tested on: MCF7 breast
HL-60(TB) leukemia = tested on: HL-60(TB) leukemia
HOP-62 NSCLC = tested on: HOP-62 NSCLC
SR leukemia = tested on: SR leukemia
IGROV1 ovarian = tested on: IGROV1 ovarian
BT-549 breast = tested on: BT-549 breast
HCC-2998 colon = tested on: HCC-2998 colon
K-562 leukemia = tested on: K-562 leukemia
DU-145 prostate = tested on: DU-145 prostate
MDA-N = tested on: MDA-N
MDA-MB-231 breast = tested on: MDA-MB-231 breast
CAKI-1 renal = tested on: CAKI-1 renal
NCI-H23 lung = tested on: NCI-H23 lung
KM12 colon = tested on: KM12 colon
RXF 393 renal = tested on: RXF 393 renal
A498 renal = tested on: A498 renal
UO-31 renal = tested on: UO-31 renal
U251 CNS = tested on: U251 CNS
SK-MEL-28 melanoma = tested on: SK-MEL-28 melanoma
HCT-15 colon = tested on: HCT-15 colon
COLO 205 colon = tested on: COLO 205 colon
NCI-H522 lung = tested on: NCI-H522 lung
NCI-H460 lung = tested on: NCI-H460 lung
HT29 colon = tested on: HT29 colon
SK-MEL-2 melanoma = tested on: SK-MEL-2 melanoma
T-47D breast = tested on: T-47D breast
TK-10 renal = tested on: TK-10 renal
SN12C renal = tested on: SN12C renal
SF-295 CNS = tested on: SF-295 CNS
MALME-3M melanoma = tested on: MALME-3M melanoma
UACC-257 melanoma = tested on: UACC-257 melanoma
MDA-MB-435 = tested on: MDA-MB-435
UACC-62 melanoma = tested on: UACC-62 melanoma
PC-3 prostate = tested on: PC-3 prostate
RPMI-8226 leukemia = tested on: RPMI-8226 leukemia
HCT-116 colon = tested on: HCT-116 colon
SNB-19 CNS = tested on: SNB-19 CNS
OVCAR-4 ovarian = tested on: OVCAR-4 ovarian
SNB-75 CNS = tested on: SNB-75 CNS
M14 melanoma = tested on: M14 melanoma
NCI-H226 lung = tested on: NCI-H226 lung
SK-OV-3 ovarian = tested on: SK-OV-3 ovarian
CCRF-CEM leukemia = tested on: CCRF-CEM leukemia

CC1=C[C@@H](C)C[C@]2(C)CC[C@H](O2)[C@]23CC[C@](C)(C[C@H](O2)[C@@H]2O[C@@](C)(CC2=O)[C@@H](O)[C@H]2CC[C@@]4(CCC[C@@H](O4)[C@H](C)C(=O)O[C@H]4C[C@H]([C@]5(O)OCC[C@H](C)[C@@H]5O)O[C@H]4C=C1)O2)O3
TGI (LOX IMVI melanoma): > 10 µM
TGI (MOLT-4 leukemia): > 10 µM
TGI (EKVX NSCLC): 0.128 µM
TGI (ACHN renal): > 5.25 µM
TGI (NCI/ADR-RES ovarian): > 10 µM
TGI (SF-539 CNS): 0.00503 µM
TGI (SF-268 CNS): 0.0219 µM
TGI (OVCAR-8 ovarian): > 10 µM
TGI (SK-MEL-5 melanoma): 0.0212 µM
TGI (SW-620 colon): > 10 µM
TGI (786-0 renal): 0.181 µM
TGI (HS 578T breast): 0.00214 µM
TGI (OVCAR-3 ovarian): 0.02 µM
TGI (OVCAR-5 ovarian): > 10 µM
TGI (HOP-92 NSCLC): 0.00517 µM
TGI (A549 NSCLC): > 10 µM
TGI (MCF7 breast): > 10 µM
TGI (HL-60(TB) leukemia): > 10 µM
TGI (HOP-62 NSCLC): 0.00916 µM
TGI (SR leukemia): > 10 µM
TGI (IGROV1 ovarian): 0.0154 µM
TGI (BT-549 breast): 0.0103 µM
TGI (HCC-2998 colon): > 10 µM
TGI (K-562 leukemia): > 10 µM
TGI (DU-145 prostate): > 10 µM
TGI (MDA-N): > 10 µM
TGI (MDA-MB-231 breast): 0.238 µM
TGI (CAKI-1 renal): 0.00515 µM
TGI (NCI-H23 lung): 0.0826 µM
TGI (KM12 colon): > 10 µM
TGI (RXF 393 renal): 0.00747 µM
TGI (A498 renal): 0.005 µM
TGI (UO-31 renal): 0.0231 µM
TGI (U251 CNS): > 10 µM
TGI (SK-MEL-28 melanoma): 0.0233 µM
TGI (HCT-15 colon): > 10 µM
TGI (COLO 205 colon): 0.00188 µM
TGI (NCI-H522 lung): > 10 µM
TGI (NCI-H460 lung): > 10 µM
TGI (HT29 colon): > 10 µM
TGI (SK-MEL-2 melanoma): > 10 µM
TGI (T-47D breast): > 10 µM
TGI (TK-10 renal): 0.0277 µM

CC(=O)OC(C)C(OC(C)=O)C(OC(C)=O)C(/C=C/C1CC=CC(=O)O1)OC(C)=O (stereo not given)
GI50 (LOX IMVI melanoma): 29.1 µM
TGI (LOX IMVI melanoma): > 100 µM
GI50 (MOLT-4 leukemia): 29.2 µM
TGI (MOLT-4 leukemia): 97.5 µM
GI50 (EKVX NSCLC): 39.6 µM
TGI (EKVX NSCLC): > 100 µM
GI50 (ACHN renal): 33.7 µM
TGI (ACHN renal): > 100 µM
GI50 (SN12C renal): 10.5 µM
TGI (SN12C renal): 36.4 µM
GI50 (SF-295 CNS): 51 µM
TGI (SF-295 CNS): > 100 µM
GI50 (MALME-3M melanoma): 36.5 µM
TGI (MALME-3M melanoma): > 100 µM
GI50 (NCI/ADR-RES ovarian): > 100 µM
TGI (NCI/ADR-RES ovarian): > 100 µM
GI50 (UACC-257 melanoma): 19.5 µM
TGI (UACC-257 melanoma): 42.1 µM
GI50 (SF-539 CNS): 21.5 µM
TGI (SF-539 CNS): 43.5 µM
GI50 (MDA-MB-435): 37.6 µM
TGI (MDA-MB-435): > 100 µM
GI50 (SF-268 CNS): 27.5 µM
TGI (SF-268 CNS): 75.7 µM
GI50 (OVCAR-8 ovarian): 26.8 µM
TGI (OVCAR-8 ovarian): 89.2 µM
GI50 (SK-MEL-5 melanoma): 26.3 µM
TGI (SK-MEL-5 melanoma): > 100 µM
GI50 (SW-620 colon): 16.1 µM
TGI (SW-620 colon): 46.3 µM
GI50 (786-0 renal): 37.8 µM
TGI (786-0 renal): > 100 µM
GI50 (UACC-62 melanoma): 25.4 µM
TGI (UACC-62 melanoma): 67.8 µM
GI50 (HS 578T breast): 12.4 µM
TGI (HS 578T breast): 33.1 µM
GI50 (OVCAR-3 ovarian): 30.8 µM
TGI (OVCAR-3 ovarian): 95.5 µM
GI50 (OVCAR-5 ovarian): 82.8 µM
TGI (OVCAR-5 ovarian): > 100 µM
GI50 (HOP-92 NSCLC): 20.8 µM
TGI (HOP-92 NSCLC): 64.6 µM
GI50 (MCF7 breast): 33.6 µM
TGI (MCF7 breast): > 100 µM
GI50 (PC-3 prostate): 73.2 µM
TGI (PC-3 prostate): > 100 µM
GI50 (RPMI-8226 leukemia): 26.7 µM
TGI (RPMI-8226 leukemia): 83.5 µM
GI50 (HL-60(TB) leukemia): 20.4 µM
TGI (HL-60(TB) leukemia): 43.3 µM
GI50 (HOP-62 NSCLC): 37.8 µM
TGI (HOP-62 NSCLC): > 100 µM
GI50 (HCT-116 colon): 20.4 µM
TGI (HCT-116 colon): 48.4 µM
GI50 (SNB-19 CNS): 33.5 µM
TGI (SNB-19 CNS): > 100 µM
GI50 (SR leukemia): 19.4 µM
TGI (SR leukemia): 53.4 µM
GI50 (OVCAR-4 ovarian): 17.2 µM
TGI (OVCAR-4 ovarian): 56.1 µM
GI50 (IGROV1 ovarian): 32 µM
TGI (IGROV1 ovarian): > 100 µM
GI50 (SNB-75 CNS): 10.3 µM
TGI (SNB-75 CNS): 28.6 µM
GI50 (M14 melanoma): 29.5 µM
TGI (M14 melanoma): > 100 µM
GI50 (BT-549 breast): 25.5 µM
TGI (BT-549 breast): 70.6 µM
GI50 (HCC-2998 colon): 22.9 µM
TGI (HCC-2998 colon): 45.3 µM
GI50 (DU-145 prostate): 18.8 µM
TGI (DU-145 prostate): 43.1 µM
GI50 (MDA-MB-231 breast): 21.8 µM
TGI (MDA-MB-231 breast): 53.6 µM
GI50 (CAKI-1 renal): 43.3 µM
TGI (CAKI-1 renal): > 100 µM
GI50 (NCI-H23 lung): 31.3 µM
TGI (NCI-H23 lung): 98 µM
GI50 (KM12 colon): 22.8 µM
TGI (KM12 colon): 61 µM
GI50 (RXF 393 renal): 21.3 µM
TGI (RXF 393 renal): 73.4 µM
GI50 (A498 renal): 16.9 µM
TGI (A498 renal): 45.3 µM
GI50 (UO-31 renal): 42.8 µM
TGI (UO-31 renal): > 100 µM
GI50 (NCI-H226 lung): 42.6 µM
TGI (NCI-H226 lung): > 100 µM
GI50 (SK-OV-3 ovarian): 78 µM
TGI (SK-OV-3 ovarian): > 100 µM
GI50 (U251 CNS): 30.7 µM
TGI (U251 CNS): > 100 µM
GI50 (SK-MEL-28 melanoma): 16.8 µM
TGI (SK-MEL-28 melanoma): 46.6 µM
GI50 (HCT-15 colon): 32.2 µM
TGI (HCT-15 colon): > 100 µM
GI50 (COLO 205 colon): 22 µM
TGI (COLO 205 colon): 64.6 µM
GI50 (NCI-H522 lung): 22.9 µM
TGI (NCI-H522 lung): 60.3 µM
GI50 (NCI-H460 lung): 32.7 µM
TGI (NCI-H460 lung): > 100 µM
GI50 (HT29 colon): 15.8 µM
TGI (HT29 colon): 47.7 µM
GI50 (SK-MEL-2 melanoma): 35.9 µM
TGI (SK-MEL-2 melanoma): > 100 µM
GI50 (CCRF-CEM leukemia): 30.3 µM
TGI (CCRF-CEM leukemia): > 100 µM
GI50 (T-47D breast): 27.3 µM
TGI (T-47D breast): 80.1 µM
GI50 (TK-10 renal): 40.6 µM
TGI (TK-10 renal): > 100 µM
